Counter-ions that a name gives are not always drawn.
Legend:
KBM-5 cells = details: KBM5 cells
Protocol: (§5) Two human CML, Ph+, p210 Bcr-Abl expressing cell lines were used, namely, KBM-5 and KBM-7. KBM-5 represents cells derived from a patient in the blastic phase of CML and is remarkable for the absence of normal c-ABL. KBM-7 has been identified to be a human near-haploid cell line.
(§6) The cells were cultured in Iscove's modified Dulbecco's medium supplemented with 10% fetal calf serum (Invitrogen Corp., Carlsbad, Calif.) at 37° C. in atmosphere of 5% CO2 in air.
(§7) Briefly, cells were seeded in triplicate in 96-well microtiter plates (Falcon, USA) at a concentration of 4×10^5 cells/ml. After exposure to the drug(s) for 72 h, 20 μl of MTS solution were added to each well, the plates were incubated for additional 4 h at 37° C., and absorbance at 490 nm was measured.

KBM-7 cells = details: KBM7 cells
Protocol: as §5, §6, §7

[1] = system: KBM-5 chronic myeloid leukemia cells; assay: In vivo antitumor activity (survival) in mice bearing KBM-5 cells
Protocol: (§1) Three to five week-old ICR SCID female mice weighting 20-25 g were obtained from Taconic farms. They were acclimatized for a week prior to the experiment. The animals were maintained on a standard animals feed and drinking water ad libitum. Mice were housed in an air-conditioned room at the temperature of 22±1° C. and 50-70% humidity with a 12/12 h-light/dark cycle throughout the experiment.
(§2) Mice were irradiated (1×250 centigray; cGy) and injected i.p. with 2×10^7 or 2,4×10^7 KBM-5 or KBM-5R tumor cells, respectively. […] In primary experiments (with KBM-5 cells) or secondary experiments (with KBM-5R cells), tumor-bearing animals were randomised (8-10 per group and treated by Troxatyl™ i.p. at 5, 10, 20, or 25 mg/kg once a day for 5 consecutive days (days 20-24). Control (untreated) mice received saline. In third experiments (with KBM-5 cells), tumor bearing animals (6 per group) were treated by one of the following schemes:
(§3) Animals in complete remission, free of detectable tumor (negative for human DQα-gen) were considered cured.
(§4) LTS were electively sacrificed on Day 95 in single agent experiments or on Day 100 in combination treatment experiment.

[2] = system: KBM-5R chronic myeloid leukemia cells (STI-571 resistant); assay: In vivo antitumor activity (survival) in mice bearing KBM-5R cells; details: for ILS % / Median survival time / Rang survival time / T/C %: qd × 5; for LTS (long term survivors): qd × 5, sacrificed Day 95
Protocol: as §1, §2, §3, §4

[3] = KBM-5, third (combination) experiment, 50 mg/kg ip, bid × 10
[4] = KBM-5, primary experiment, 5 mg/kg ip, qd × 5
[5] = KBM-5, primary experiment, 10 mg/kg ip, qd × 5
[6] = KBM-5, primary experiment, 20 mg/kg ip, qd × 5
[7] = KBM-5, primary experiment, 25 mg/kg ip, qd × 5
[8] = KBM-5, third (combination) experiment, 10 mg/kg ip, qd × 5
[9] = KBM-5, third (combination) experiment, 25 mg/kg ip, qd × 5

Protocol for KBM5-STI^R1.0 cells: (§8) In vitro growth inhibition effect of adaphostin on leukemic cells was determined by measuring MTS (CellTiter 96®Aqueous One Solution Reagent, Promega Corporation, WI) dye absorbance by living cells. Briefly, cells were seeded in triplicate in 96-well microtiter plates (Falcon, USA) at a concentration of 4×10^5 cells/ml. After exposure to the drug(s) for 72 h, 20 μl of MTS solution were added to each well, the plates were incubated for additional 4 h at 37° C., and absorbance at 490 nm was measured.
Protocol for KBM7-STI^R1.0 cells: as §8

Cc1ccc(NC(=O)c2ccc(CN3CCN(C)CC3)cc2)cc1Nc1nccc(-c2cccnc2)n1 [STI-571, imatinib mesylate]
STI-571 concentration at which proliferation was almost completely abolished (KBM7-STI^R1.0 cells): 7.5 µM | response to STI-571 exposure (KBM-5 cells): G0/G1 cell cycle arrest | STI-571 concentration up to which cells still proliferated (KBM5-STI^R1.0 cells): up to 10 μM | response to STI-571 exposure (KBM-7 cells): apoptosis | ILS % [1, 3]: 8.95% | Median survival time [1, 3]: 31.16 days | Rang survival time [1, 3]: 26 to 40 days

Nc1ccn([C@@H]2CO[C@H](CO)O2)c(=O)n1 [Troxatyl ™, (−)-β-L-Dioxolane-Cytidine]
ILS % ([2]; 5 mg/kg ip): 13.93% | Median survival time ([2]; 5 mg/kg ip): 37.142 days | Rang survival time ([2]; 5 mg/kg ip): 36 to 50 days | T/C % ([2]; 5 mg/kg ip): 113.93% | LTS (long term survivors) ([2]; 5 mg/kg ip): 2 | ILS % ([2]; 10 mg/kg ip): 50.64% | Median survival time ([2]; 10 mg/kg ip): 49.11 days | Rang survival time ([2]; 10 mg/kg ip): 36 to 69 days | T/C % ([2]; 10 mg/kg ip): 150.64% | ILS % ([2]; 20 mg/kg ip): 56.84% | Median survival time ([2]; 20 mg/kg ip): 51.13 days | Rang survival time ([2]; 20 mg/kg ip): 37 to 69 days | T/C % ([2]; 20 mg/kg ip): 156.84% | ILS % ([2]; 25 mg/kg ip): 54.66% | Median survival time ([2]; 25 mg/kg ip): 50.42 days | Rang survival time ([2]; 25 mg/kg ip): 35 to 69 days | T/C % ([2]; 25 mg/kg ip): 154.66% | LTS (long term survivors) ([2]; 25 mg/kg ip): 1 | ILS % [1, 4]: 57.09% | Median survival time [1, 4]: 54 days | Rang survival time [1, 4]: 46 to 66 days | T/C % [1, 4]: 157.09% | LTS (long term survivors) ([1]; KBM-5, primary experiment, 5 mg/kg ip, qd × 5, sacrificed Day 95): 1 | ILS % [1, 5]: 45.45% | Median survival time [1, 5]: 50 days | Rang survival time [1, 5]: 44 to 66 days | T/C % [1, 5]: 145.45% | ILS % [1, 6]: 33.82% | Median survival time [1, 6]: 46 days | Rang survival time [1, 6]: 36 to 58 days | T/C % [1, 6]: 133.82% | ILS % [1, 7]: 68.73% | Median survival time [1, 7]: 58 days | Rang survival time [1, 7]: 35 to 74 days | T/C % [1, 7]: 168.73% | ILS % [1, 8]: 50.90% | Median survival time [1, 8]: 43.16 days | Rang survival time [1, 8]: 38 to 50 days | T/C % [1, 8]: 150.9% | ILS % [1, 9]: 71.33% | Median survival time [1, 9]: 49 days | Rang survival time [1, 9]: 40 to 56 days | T/C % [1, 9]: 171.33%
